The structures appear in SMILES notation. Where two headings read alike, the source gives them in different places.

These results are taken from patent US20260308186A1, “STAT DEGRADERS AND USES THEREOF” (Recludix Pharma, Inc., priority 2023, published 2026).

The target in assay [1] is T1, STAT3 (Homo sapiens, UniProt P40763).
T1 construct: Recombinant STAT3 protein (STAT3(G127-1722))
As to the kind of experiment: STAT3 Fluorescence Polarization (FP) Assay. The assay is classed as binding. (Polarisation of emitted light reports the rotation of a fluorescent probe.)

In assay [2] the target is T2, pSTAT3 (Homo sapiens, UniProt P40763).
T2 construct: pY705-STAT3 MSD read-out
T2 sequence (P40763 whole entry): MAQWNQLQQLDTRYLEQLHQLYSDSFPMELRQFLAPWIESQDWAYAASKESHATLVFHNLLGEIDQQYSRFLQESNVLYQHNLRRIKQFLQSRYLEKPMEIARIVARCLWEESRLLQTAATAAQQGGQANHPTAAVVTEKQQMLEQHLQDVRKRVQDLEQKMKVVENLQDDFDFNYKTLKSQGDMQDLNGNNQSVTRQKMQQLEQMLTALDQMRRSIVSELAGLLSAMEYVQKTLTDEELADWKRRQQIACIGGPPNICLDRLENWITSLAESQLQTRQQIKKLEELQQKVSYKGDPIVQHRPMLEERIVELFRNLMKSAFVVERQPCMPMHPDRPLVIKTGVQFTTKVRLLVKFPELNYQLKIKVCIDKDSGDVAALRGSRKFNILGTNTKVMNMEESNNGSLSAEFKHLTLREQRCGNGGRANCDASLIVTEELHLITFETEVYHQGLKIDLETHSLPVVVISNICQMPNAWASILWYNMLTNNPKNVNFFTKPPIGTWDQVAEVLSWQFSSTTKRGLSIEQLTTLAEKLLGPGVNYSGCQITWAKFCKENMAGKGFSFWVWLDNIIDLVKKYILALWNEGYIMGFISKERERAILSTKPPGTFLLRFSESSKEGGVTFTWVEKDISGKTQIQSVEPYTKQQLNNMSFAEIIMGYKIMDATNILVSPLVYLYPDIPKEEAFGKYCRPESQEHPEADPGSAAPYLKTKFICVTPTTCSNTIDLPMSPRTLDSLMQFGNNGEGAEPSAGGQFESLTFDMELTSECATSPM
As to the kind of experiment: MSD-pSTAT-PBMC Assay, pSTAT3 (IL-6 stimulated PBMC). The assay is classed as cell-based. The source says: Cryopreserved Peripheral Blood Mononuclear Cells (PBMC) are from AllCells. Recombinant Human IL-4 and IL-6 are from Peprotech. Mouse monoclonal anti-STAT3 antibody, rabbit monoclonal anti-pY705-STAT3 antibody, rabbit monoclonal Anti-pY641-STAT6 antibody, and lysis buffer are from Cell Signaling Technology (CST). Mouse monoclonal anti-STAT6 antibody is from BioLegend. Assay plates, blocker, and anti-rabbit secondary antibody are from Meso Scale Discovery (MSD).
Cryopreserved PBMCs were thawed out and allowed to recover overnight in IMDM+10% heat-inactivated FBS prior to plating 50,000 (STAT3) or 25,000 (STAT6) cells per well in 96-well U-bottom tissue culture plates. Cells were treated with compound for 3 hrs. then stimulated with 10 ng/mL IL-6 (STAT3) or 1 ng/mL IL-4 (STAT6) for 10 min. Cells were then spun down and washed with ice-cold PBS prior to lysing the cell pellet with 1× lysis buffer (CST) with 1×HALT protease and phosphatase inhibitor cocktail (Thermo). Lysates were transferred to and incubated overnight at 4° C. with shaking in QuickPlex 96-well high bind assay plates (MSD) pre-coated overnight with 30 μL per well of 0.6 μg/mL mouse monoclonal anti-STAT3 antibody (STAT3) or 2 μg/mL mouse monoclonal anti-STAT6 antibody (STAT6) in 1×PBS, and pre-blocked for 1 hour with 3% Blocker-A (MSD). Captured protein in the assay plates were then washed and probed with 25 μL per well of 0.25 μg/ml rabbit monoclonal anti-pY705-STAT3 antibody (STAT3) or 0.18 μg/ml rabbit monoclonal Anti-pY641-STAT6 antibody (STAT6) in 1% Blocker-A for 1 hour at room temperature with shaking, then washed and probed with 25 ul per well of 1 ug/ml Sulfo-TAG Labeled Goat Anti-Rabbit Antibody (MSD) in 1% Blocker-A for 1 hour at room temperature with shaking. Assay plates were then washed and 150 μL of 1× Read Buffer-T (MSD) was added to each well prior to reading on an SQ120 MSD Plate Reader. Assay signal from each sample was subtracted by the signal from unstimulated control wells and normalized to DMSO control wells. IC50 values were calculated using Graph Pad Prism Dose-Response Nonlinear Regression with variable slope. For both pSTAT3 and pSTAT6 A=≤100 nM; B=>100-1000 nM; C=>1000-3000 nM; and D=>3 μM.

For assay [3], the target named is T3, pSTAT6 (Homo sapiens, UniProt P42226).
T3 construct: pY641-STAT6 MSD read-out
T3 sequence (P42226 1-847): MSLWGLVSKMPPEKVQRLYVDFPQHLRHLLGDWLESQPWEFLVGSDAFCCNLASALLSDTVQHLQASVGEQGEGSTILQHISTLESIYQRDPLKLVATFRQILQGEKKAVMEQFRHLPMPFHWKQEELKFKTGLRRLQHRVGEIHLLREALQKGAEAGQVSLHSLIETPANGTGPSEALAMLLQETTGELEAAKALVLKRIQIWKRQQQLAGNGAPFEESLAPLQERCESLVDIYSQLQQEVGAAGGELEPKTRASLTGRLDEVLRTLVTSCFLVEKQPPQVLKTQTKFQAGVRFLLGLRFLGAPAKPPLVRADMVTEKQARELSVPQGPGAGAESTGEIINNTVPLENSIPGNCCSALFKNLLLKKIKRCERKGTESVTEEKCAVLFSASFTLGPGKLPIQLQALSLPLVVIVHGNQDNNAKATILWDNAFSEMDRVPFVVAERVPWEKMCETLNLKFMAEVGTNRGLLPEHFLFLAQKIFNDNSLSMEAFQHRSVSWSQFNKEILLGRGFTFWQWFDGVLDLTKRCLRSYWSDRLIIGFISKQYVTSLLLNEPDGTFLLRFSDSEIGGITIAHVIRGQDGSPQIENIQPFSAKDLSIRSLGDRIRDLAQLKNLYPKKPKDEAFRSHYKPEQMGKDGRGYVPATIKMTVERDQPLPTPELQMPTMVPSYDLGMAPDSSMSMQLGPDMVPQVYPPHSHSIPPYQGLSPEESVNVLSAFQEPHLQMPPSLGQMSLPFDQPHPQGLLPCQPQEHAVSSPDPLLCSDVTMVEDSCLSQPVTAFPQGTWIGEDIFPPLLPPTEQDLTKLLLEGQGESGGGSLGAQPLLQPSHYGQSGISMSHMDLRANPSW
In words: MSD-pSTAT-PBMC Assay, pSTAT6 (IL-4 stimulated PBMC). The assay is classed as cell-based. A digest of the protocol: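 Human PBMC were recovered overnight, treated 3 h with compound, then stimulated for 10 min with 10 ng/mL IL-6 (pSTAT3) or 1 ng/mL IL-4 (pSTAT6). Lysates were read by MSD sandwich immunoassay, with total STAT capture and pY705-STAT3 or pY641-STAT6 detection. Signal minus unstimulated wells was normalized to DMSO, and IC50 came from a variable-slope fit.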

For assay [4], the target named is T4, STAT6 (Homo sapiens, UniProt P42226).
T4 construct: Recombinant STAT6 protein (STAT6(W123-T658))
T4 sequence (P42226 123-658): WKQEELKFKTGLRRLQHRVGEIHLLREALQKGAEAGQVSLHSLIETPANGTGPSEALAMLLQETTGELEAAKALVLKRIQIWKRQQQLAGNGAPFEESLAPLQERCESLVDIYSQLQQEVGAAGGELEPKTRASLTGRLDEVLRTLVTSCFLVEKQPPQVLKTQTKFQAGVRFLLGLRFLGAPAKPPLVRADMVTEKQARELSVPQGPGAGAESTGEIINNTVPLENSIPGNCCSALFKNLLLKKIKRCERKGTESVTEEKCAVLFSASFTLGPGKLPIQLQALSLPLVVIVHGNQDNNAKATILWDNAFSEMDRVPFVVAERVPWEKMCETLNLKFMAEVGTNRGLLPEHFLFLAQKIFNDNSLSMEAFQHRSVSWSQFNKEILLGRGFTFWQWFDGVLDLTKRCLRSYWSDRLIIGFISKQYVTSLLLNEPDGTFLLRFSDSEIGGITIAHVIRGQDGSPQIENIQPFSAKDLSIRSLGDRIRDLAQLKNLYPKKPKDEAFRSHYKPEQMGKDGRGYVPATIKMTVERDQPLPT
As to the kind of experiment: STAT6 Fluorescence Polarization (FP) Assay. The assay is classed as binding. The essentials: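 STAT6(W123-T658) at 250 nM plus 2 nM 5-FAM phosphotyrosine peptide probe in HEPES pH 7.4 buffer with 2 mM DTT, 1% DMSO final. Polarization read after 45 min at room temperature. IC50 from nonlinear regression of mP against log concentration.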

Where [5] appears, read: read-out: pSTAT3 IC50, compound 3 hrs, then 10 ng/mL IL-6 for 10 min, pY705-STAT3.
The mark [6] stands for this setting: read-out: pSTAT6 IC50, compound 3 hrs, then 1 ng/mL IL-4 for 10 min, pY641-STAT6.
[7] abbreviates: recombinant STAT3 25 nM, probe 5-FAM-GpYLPQTV-NH2 2 nM, 45 min, room temperature, read-out: STAT3 FP IC50.
[8] abbreviates: compound 3 hrs, then 10 ng/mL IL-6 for 10 min, pY705-STAT3, read-out: pSTAT3 IC50.
[9] abbreviates: compound 3 hrs, then 1 ng/mL IL-4 for 10 min, pY641-STAT6, read-out: pSTAT6 IC50.
The mark [10] stands for this setting: recombinant STAT6(W123-T658) 250 nM, probe 5-FAM-Ap[…]-NH2 2 nM, 45 min, room temperature, read-out: STAT6 FP IC50.

T1 sequence (P40763 127-722 limits assumed): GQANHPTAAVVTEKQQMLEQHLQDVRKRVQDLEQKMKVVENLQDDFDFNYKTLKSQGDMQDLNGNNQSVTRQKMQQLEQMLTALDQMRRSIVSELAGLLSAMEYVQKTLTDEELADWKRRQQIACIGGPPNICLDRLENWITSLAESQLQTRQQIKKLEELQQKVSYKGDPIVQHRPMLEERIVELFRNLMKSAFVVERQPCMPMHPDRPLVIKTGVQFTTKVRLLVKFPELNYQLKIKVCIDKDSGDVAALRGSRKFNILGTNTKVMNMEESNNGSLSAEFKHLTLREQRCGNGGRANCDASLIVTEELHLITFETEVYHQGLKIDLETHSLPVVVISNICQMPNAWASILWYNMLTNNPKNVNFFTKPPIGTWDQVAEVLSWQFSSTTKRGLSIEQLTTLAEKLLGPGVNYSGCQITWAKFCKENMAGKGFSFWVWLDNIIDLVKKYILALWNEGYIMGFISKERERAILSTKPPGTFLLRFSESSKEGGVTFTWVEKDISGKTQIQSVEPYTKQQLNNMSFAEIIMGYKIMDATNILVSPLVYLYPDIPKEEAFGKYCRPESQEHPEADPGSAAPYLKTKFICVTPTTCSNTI

Take `CN(C(=O)[C@@H]1CC[C@@H]2CCN(C(=O)CCCCCC#Cc3cccc4c3CN(C3CCC(=O)NC3=O)C4=O)C[C@H](NC(=O)c3cc4cc(C(F)(F)P(=O)(O)O)ccc4[nH]3)C(=O)N21)c1ccccc1` (stereo partly drawn) [Compound 1, [(2-{[(5S,8S,10aR)-3-{8-[2-(2,6-dioxopiperidin-3-yl)-1-oxo-2,3-dihydro-1H-isoindol-4-yl]oct-7-ynoyl}-8-[methyl(phenyl)carbamoyl]-6-oxo-decahydropyrrolo[1,2-a][1,5]diazocin-5-yl]carbamoyl}-1H-indol-5-yl)difluoromethyl]phosphonic acid]: the IC50 in assay [1] was 1 to 10 µM; in assay [2] (setting [5]) it was greater than 3 µM; in assay [3] (setting [6]) it was greater than 3 µM; in assay [4] it was 0.3 to 3 µM.

As for `CC(=O)N1CC[C@H]2CC[C@@H](C(=O)Nc3ccc(-c4ccc(NC(=O)CCCCCC#Cc5cccc6c5CN(C5CCC(=O)NC5=O)C6=O)cc4)cc3)N2C(=O)[C@@H](NC(=O)c2cc3cc(C(F)(F)P(=O)(O)O)ccc3[nH]2)C1` (stereo partly drawn) [Compound 3, ((2-(((5S,8S,10aR)-3-acetyl-8-((4′-(8-(2-(2,6-dioxopiperidin-3-yl)-1-oxoisoindolin-4-yl)oct-7-ynamido)-[1,1′-biphenyl]-4-yl)carbamoyl)-6-oxodecahydropyrrolo[1,2-a][1,5]diazocin-5-yl)carbamoyl)-1H-indol-5-yl)difluoromethyl)phosphonic acid], the IC50 was 0.1 to 1 µM in assay [1], greater than 3 µM in assay [2] (setting [5]), greater than 3 µM in assay [3] (setting [6]) and 0.3 to 3 µM in assay [4].

Regarding `O=C1CCC(N2Cc3c(C#CCCCCCC(=O)N4CC[C@H]5CC[C@@H](C(=O)N6CC(c7cccnc7)C6)N5C(=O)[C@@H](NC(=O)c5cc6cc(C(F)(F)P(=O)(O)O)ccc6s5)C4)cccc3C2=O)C(=O)N1` (stereo partly drawn) [Compound 5, ((2-(((5S,8S,10aR)-3-(8-(2-(2,6-dioxopiperidin-3-yl)-1-oxoisoindolin-4-yl)oct-7-ynoyl)-6-oxo-8-(3-(pyridin-3-yl)azetidine-1-carbonyl)decahydropyrrolo[1,2-a][1,5]diazocin-5-yl)carbamoyl)benzo[b]thiophen-5-yl)difluoromethyl)phosphonic acid], the IC50 was less than 0.1 µM in assay [1] (setting [7]), greater than 3 µM in assay [2] (setting [8]), greater than 3 µM in assay [3] (setting [9]) and 3 to 30 µM in assay [4] (setting [10]).

With `N#CC1CN(C(=O)C2CCC3CCN(C(=O)CCCCCC#Cc4cccc5c4CN(C4CCC(=O)NC4=O)C5=O)CC(NC(=O)c4cc5cc(C(F)(F)P(=O)(O)O)ccc5s4)C(=O)N32)CC1c1ccccc1` [Compound 6, ((2-(((5S,8S,10aR)-8-((rel-3S,4R)-3-cyano-4-phenylpyrrolidine-1-carbonyl)-3-(8-(2-(2,6-dioxopiperidin-3-yl)-1-oxoisoindolin-4-yl)oct-7-ynoyl)-6-oxodecahydropyrrolo[1,2-a][1,5]diazocin-5-yl)carbamoyl)benzo[b]thiophen-5-yl)difluoromethyl)phosphonic acid], the IC50 in assay [1] (setting [7]) was 1 to 10 µM; in assay [2] (setting [8]), greater than 3 µM; in assay [3] (setting [9]) it was 1 to 3 µM; in assay [4] (setting [10]), less than 0.3 µM.

Turning to `Cc1ccc2[nH]nc(C(=O)N3CC[C@H]4CC[C@@H](C(=O)NCCCCCCCCC(=O)N[C@H](C(=O)N5C[C@H](O)C[C@H]5C(=O)N[C@@H](C)c5ccc(-c6scnc6C)cc5)C(C)(C)C)N4C(=O)[C@@H](NC(=O)c4ccc5ccc(C(F)(F)P(=O)(O)O)cc5c4)C3)c2c1` [Compound 7], the IC50 in assay [1] is 1 to 10 µM; in assay [2] (setting [5]), greater than 3 µM; in assay [3] (setting [6]), greater than 3 µM; in assay [4], less than 0.3 µM.

Regarding `Cc1ccc2[nH]nc(C(=O)N3CC[C@H]4CC[C@@H](C(=O)NCCCCCCC#Cc5cccc6c5CN(C5CCC(=O)NC5=O)C6=O)N4C(=O)[C@@H](NC(=O)c4ccc5ccc(C(F)(F)P(=O)(O)O)cc5c4)C3)c2c1` (stereo partly drawn) [Compound 9, ((7-(((5S,8S,10aR)-8-((8-(2-(2,6-dioxopiperidin-3-yl)-1-oxoisoindolin-4-yl)oct-7-yn-1-yl)carbamoyl)-3-(5-methyl-1H-indazole-3-carbonyl)-6-oxodecahydropyrrolo[1,2-a][1,5]diazocin-5-yl)carbamoyl)naphthalen-2-yl)difluoromethyl)phosphonic acid], the IC50 is 1 to 10 µM in assay [1], greater than 3 µM in assay [2] (setting [5]), 1 to 3 µM in assay [3] (setting [6]) and less than 0.3 µM in assay [4].

Regarding `CN(C)c1ccncc1C1CN(C(=O)[C@@H]2CC[C@@H]3CCN(C(=O)CCCCCC#Cc4cccc5c4CN(C4CCC(=O)NC4=O)C5=O)C[C@H](NC(=O)c4cc5cc(C(F)(F)P(=O)(O)O)ccc5s4)C(=O)N32)C1` (stereo partly drawn) [Compound 39, ((2-(((5S,8S,10aR)-8-(3-(4-(dimethylamino)pyridin-3-yl)azetidine-1-carbonyl)-3-(8-(2-(2,6-dioxopiperidin-3-yl)-1-oxoisoindolin-4-yl)oct-7-ynoyl)-6-oxodecahydropyrrolo[1,2-a][1,5]diazocin-5-yl)carbamoyl)benzo[b]thiophen-5-yl)difluoromethyl)phosphonic acid], the IC50 in assay [1] (setting [7]) is less than 0.1 µM; in assay [2] (setting [8]), 0.1 to 1 µM; in assay [4] (setting [10]) it was 3 to 30 µM.
